{"source": "ChEMBL document CHEMBL1933014", "about": "“Synthesis and antihyperglycemic evaluation of new 2,4-thiazolidinediones having biodynamic aryl sulfonylurea moieties” (2012)", "data": [{"system": "Rattus norvegicus", "assay": "Antihyperglycemic activity in normal albino rat sucrose-loaded model assessed as inhibition of postprandial rise in blood glucose level at 100 mg/kg, po pretreated 30 mins before sucrose challenge measured for 2 hrs during oral glucose tolerance test", "format": "functional", "parameters": "scale not given: the % may be the effect or the level left", "units": {"Activity": "%"}, "values": [{"smiles": "Cc1ccc(S(=O)(=O)NC(=O)NCC2SC(=O)NC2=O)cc1", "note": "(centres undefined)", "Activity": 11.5}, {"smiles": "O=C(NCC1SC(=O)NC1=O)NS(=O)(=O)c1ccccc1", "note": "(centres undefined)", "Activity": 15.8}, {"smiles": "O=C(NCC1SC(=O)NC1=O)NS(=O)(=O)c1ccc(Cl)cc1", "note": "(centres undefined)", "Activity": 17.2}, {"smiles": "O=C(NCC1SC(=O)NC1=O)NS(=O)(=O)c1ccc(F)cc1", "note": "(centres undefined)", "Activity": 10.7}, {"smiles": "O=C(NCC1SC(=O)NC1=O)NS(=O)(=O)c1ccc(Cl)cc1Cl", "note": "(centres undefined)", "Activity": 14.3}, {"smiles": "O=C(NCC1SC(=O)NC1=O)NS(=O)(=O)c1cc(Cl)ccc1Cl", "note": "(centres undefined)", "Activity": 16.5}, {"smiles": "O=C(NCC1SC(=O)NC1=O)NS(=O)(=O)c1ccc(Br)cc1Br", "note": "(centres undefined)", "Activity": 8.66}, {"smiles": "O=C(NCC1SC(=O)NC1=O)NS(=O)(=O)c1ccc(Br)cc1", "note": "(centres undefined)", "Activity": 9.44}, {"smiles": "CN(C)C(=N)NC(=N)N", "note": "[METFORMIN]", "Activity": 27}]}]}
